Source: publication PMC5445929 (Journal of fluorine chemistry, 2016)
Where two headings read alike, the source gives them in different places.

Tests used:
[1] = metabolic stability against liver microsomes; type: in vitro ADME; settings: 4 h at 37 °C, LC–MS/MS
[2] = metabolic stability against liver microsomes; type: in vitro ADME; settings: 4 h at 37 °C, LC–MS/MS; remark: listed apart in the source
[3] = metabolic stability against liver microsomes; type: in vitro ADME, mouse; settings: murine microsomes, 4 h at 37 °C, LC–MS/MS
[4] = tested on: M. tuberculosis H37Rv; settings: cited from earlier work
[5] = tested on: M. tuberculosis Erdman; settings: cited from earlier work

Compound | % metabolic clearance human [1] | % metabolic clearance rat [2] | % metabolic clearance mouse [3] | MIC (μg/mL) H37Rv [4] | log10 CFU Spleen ([5]; route IP) | Δ log10 CFU Lungs (test vs control group means) ([5]; route IP) | Δ log10 CFU Spleen (test vs control group means) ([5]; route IP) | log10 CFU Spleen ([5]; route PO) | Δ log10 CFU Lungs (test vs control group means) ([5]; route PO) | Δ log10 CFU Spleen (test vs control group means) ([5]; route PO) | log10 CFU Lungs ([5]; route PO, test compounds 50 mg/kg b.i.d., day 5-15 post infection)
2-cyclohexyl-5-dimethylamino-6-(4-trifluorimethoxy)benzamido-1,3-benzoxazole [Compound 12] | 56% | 22% | 71% | 6.25 µg/mL | – | – | – | – | – | – | –
NNC(=O)c1ccncc1 [INH, isoniazid] | – | – | – | – | 0 ± 0 n = 5 log10 CFU | −6.57 log10 CFU | −4.96 log10 CFU | 0 ± 0 n = 5 log10 CFU | −6.31 log10 CFU | −3.89 log10 CFU | 0 ± 0 n = 5 log10 CFU
